In ChEMBL document CHEMBL1141637, “Synthesis and anti-inflammation evaluation of new C60 fulleropyrrolidines bearing biologically active xanthine” (2008):

How the values were obtained:
[1] = system: J774.A1; test: Reduction of LPS-induced TNFalpha production in mouse J774A.1 cells at 10 uM after 3 hrs by ELISA relative to control; assay type: functional; set-up: scale not given: the % may be the effect or the level left
[2] = system: J774.A1; test: Reduction of LPS-induced nitric oxide production in mouse J774A.1 cells at 10 uM after 3 hrs relative to control; assay type: functional; set-up: scale not given: the % may be the effect or the level left

Work on CC(=O)CCCCn1c(=O)c2c(ncn2C)n(C)c1=O [PENTOXIFYLLINE] yielded an Activity [1] of 7.5% and an Activity [2] of 33.9%.
